Test results taken from patent EP2168965A1, “Substituted imidazopyridine, imidazopyrazine, imidazopyridazine and imidazopyrimidine derivatives as melanocortin-4 receptor antagonists” (Santhera Pharmaceuticals (Schweiz) AG, priority 2008, dated 2010).
Like-named read-outs stand apart in the source and are kept apart here.

How the values were obtained:
[1] = molecular target: T1, hMC-4R (Homo sapiens, UniProt P32245); assay: Functional assay: membrane based cAMP fluorescence polarization assay for agonistic activity; format: biochemical; settings: read-out: % activation functional assay
T1 construct: expressed in transfected cells; host or cells: HEK293 cells (membrane preparations)
T1 sequence (P32245 whole entry): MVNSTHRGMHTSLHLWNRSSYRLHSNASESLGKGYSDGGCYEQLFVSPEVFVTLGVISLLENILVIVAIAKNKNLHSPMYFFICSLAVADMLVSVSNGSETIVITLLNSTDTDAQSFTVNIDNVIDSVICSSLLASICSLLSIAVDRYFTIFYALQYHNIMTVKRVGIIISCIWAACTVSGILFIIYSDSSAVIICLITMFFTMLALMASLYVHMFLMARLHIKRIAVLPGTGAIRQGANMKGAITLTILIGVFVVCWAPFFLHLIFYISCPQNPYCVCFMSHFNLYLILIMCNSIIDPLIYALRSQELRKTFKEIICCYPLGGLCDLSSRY

[2] = molecular target: T1, hMC-4R; assay: Membrane binding assay: competition with fluorescence labeled NDP-alpha-MSH, fluorescence polarization
Method: A membrane binding assay is used to identify competitive inhibitors of fluorescence labeled NDP-alpha-MSH binding to HEK293 cell membrane preparations expressing human melanocortin receptors.
The test compound or unlabeled NDP-alpha-MSH is dispensed at varying concentrations to a 384 well microtiter plate. Fluorescence labeled NDP-alpha-MSH is dispensed at a single concentration, followed by addition of membrane preparations. The plate is incubated for 5 h at room temperature.
The degree of fluorescence polarization is determined with a fluorescence polarization microplate reader.

[3] = HEK293 cell membrane preparations expressing human melanocortin receptors, 5 h at room temperature, read-out: hMC-4R binding assay IC50

| SMILES | Emax [1] [%] | IC50 [2] [nM] | IC50 [2, 3] [nM] |
| --- | --- | --- | --- |
| CCOC(=O)c1nc2ccc(C(=O)N(CCC(C)C)CCC(C)C)cn2c1C#CCN1CCCC1 [Example 1] | 0 | 100 to 1000 | – |
| CC(C)CCN(CCC(C)C)C(=O)c1ccc2ncc(C#CCN3CCCC3)n2c1 [Example 2] | 0 | – | 100 to 1000 |
| CC(C)CCN(CCC(C)C)C(=O)c1ccc2nc(-c3ccccc3)c(C#CCN3CCCC3)n2c1 [Example 3] | 0 | – | > 1000 |
| CC(C)CCN(CCC(C)C)C(=O)c1ccc2nc(C#Cc3ccccc3)c(C#CCN3CCCC3)n2c1 [Example 4] | 5 | – | 100 to 1000 |
| CC(C)CCN(CCC(C)C)C(=O)c1ccc2nc(-c3cnco3)c(C#CCN3CCCC3)n2c1 [Example 5] | 0 | – | < 100 |
| CC(C)CCN(CCC(C)C)C(=O)c1ccc2nc(C#N)c(C#CCN3CCCC3)n2c1 [Example 6] | 6 | > 1000 | – |
| CC(C)CCN(CCC(C)C)C(=O)c1ccc2nc(-c3ccoc3)c(C#CCN3CCCC3)n2c1 [Example 7] | 3 | – | 100 to 1000 |
| CC(C)CCN(CCC(C)C)C(=O)c1ccc2nc(-c3ccco3)c(C#CCN3CCCC3)n2c1 [Example 8] | 5 | – | 100 to 1000 |
| CC(C)CCN(CCC(C)C)C(=O)c1ccc2nc(Nc3ncccn3)c(C#CCN3CCCC3)n2c1 [Example 9] | -12 | – | 100 to 1000 |
| CC(C)CCN(CCC(C)C)C(=O)c1ccc2nc(N3CCOCC3)c(C#CCN3CCCC3)n2c1 [Example 10] | 0 | – | 100 to 1000 |
| CC(C)CCN(CCC(C)C)C(=O)c1ccc2nc(Nc3ccccn3)c(C#CCN3CCCC3)n2c1 [Example 11] | -7 | – | < 100 |
| COc1cccc(Nc2nc3ccc(C(=O)N(CCC(C)C)CCC(C)C)cn3c2C#CCN2CCCC2)c1 [Example 12] | -3 | – | < 100 |
| CC(C)CCN(CCC(C)C)C(=O)c1ccc2nc(N(C)c3ccccn3)c(C#CCN3CCCC3)n2c1 [Example 13] | -4 | – | 100 to 1000 |
| COc1cccc(N(C)c2nc3ccc(C(=O)N(CCC(C)C)CCC(C)C)cn3c2C#CCN2CCCC2)c1 [Example 14] | 0 | – | 100 to 1000 |
| CC(C)CCN(CCC(C)C)C(=O)c1ccc2nc(-c3cnn(CC4OCCO4)c3)c(C#CCN3CCCC3)n2c1 [Example 15] | -4 | – | < 100 |
| CC(C)CCN(CCC(C)C)C(=O)c1ccc2nc(C3=CCN(C(=O)OC(C)(C)C)CC3)c(C#CCN3CCCC3)n2c1 [Example 16] | -11 | – | > 1000 |
| CC(C)CCN(CCC(C)C)C(=O)c1ccc2nc(-c3cn[nH]c3)c(C#CCN3CCCC3)n2c1 [Example 17] | -6 | – | < 100 |
| COc1cc(Nc2nc3ccc(C(=O)N(CCC(C)C)CCC(C)C)cn3c2C#CCN2CCCC2)ccc1F [Example 18] | -5 | – | < 100 |

| SMILES | Emax [1] [%] | IC50 [2] [nM] | IC50 [2, 3] [nM] |
| --- | --- | --- | --- |
| COc1cc(Nc2nc3ccc(C(=O)N(CCC(C)C)CCC(C)C)cn3c2C#CCN2CCCC2)ccn1 [Example 19] | -13 | – | < 100 |
| COc1ccc(Nc2nc3ccc(C(=O)N(CCC(C)C)CCC(C)C)cn3c2C#CCN2CCCC2)cn1 [Example 20] | -16 | – | < 100 |
| CC(C)CCN(CCC(C)C)C(=O)c1ccc2nc(-c3ccc4nccn4c3)c(C#CCN3CCCC3)n2c1 [Example 21] | -12 | – | < 100 |
| CC(C)CCN(CCC(C)C)C(=O)c1ccc2nc(-c3ccc(F)c(F)c3)c(C#CCN3CCCC3)n2c1 [Example 22] | 0 | – | 100 to 1000 |
| COc1ncc(-c2nc3ccc(C(=O)N(CCC(C)C)CCC(C)C)cn3c2C#CCN2CCCC2)cc1F [Example 23] | -9 | – | 100 to 1000 |
| COc1cc(-c2nc3ccc(C(=O)N(CCC(C)C)CCC(C)C)cn3c2C#CCN2CCCC2)ccc1F [Example 24] | -2 | – | 100 to 1000 |
| COc1cc(F)cc(-c2nc3ccc(C(=O)N(CCC(C)C)CCC(C)C)cn3c2C#CCN2CCCC2)c1 [Example 25] | -2 | – | > 1000 |
| CC(C)CCN(CCC(C)C)C(=O)c1ccc2nc(-c3ccc(C#N)c(F)c3)c(C#CCN3CCCC3)n2c1 [Example 26] | -4 | – | 100 to 1000 |
| CC(C)CCN(CCC(C)C)C(=O)c1ccc2nc(-c3cc(F)cc(F)c3)c(C#CCN3CCCC3)n2c1 [Example 27] | -3 | – | > 1000 |
| COc1ccc(Nc2nc3ccc(C(=O)N(CCC(C)C)CCC(C)C)cn3c2C#CCN2CCCC2)cc1F [Example 28] | -12 | – | < 100 |
| CC(C)CCN(CCC(C)C)C(=O)c1ccc2nc(-c3cnc4c(c3)OCCN4C)c(C#CCN3CCCC3)n2c1 [Example 29] | -5 | – | < 100 |
| Cc1n[nH]cc1-c1nc2ccc(C(=O)N(CCC(C)C)CCC(C)C)cn2c1C#CCN1CCCC1 [Example 30] | 4 | – | 100 to 1000 |
| Cc1cc(-c2nc3ccc(C(=O)N(CCC(C)C)CCC(C)C)cn3c2C#CCN2CCCC2)n(C)n1 [Example 31] | 3 | – | 100 to 1000 |
| COc1cccc(-c2nc3ccc(C(=O)N(CCC(C)C)CCC(C)C)cn3c2C#CCN2CCCC2)n1 [Example 32] | -4 | – | 100 to 1000 |
| CC(C)CCN(CCC(C)C)C(=O)c1ccc2nc(-c3ccc(=O)n(C)c3)c(C#CCN3CCCC3)n2c1 [Example 33] | – | – | < 100 |
| COc1ncc(-c2nc3ccc(C(=O)N(CCC(C)C)CCC(C)C)cn3c2C#CCN2CCCC2)cn1 [Example 34] | – | – | < 100 |
| CC(C)CCN(CCC(C)C)C(=O)c1ccc2nc(-c3ccc4nccnc4c3)c(C#CCN3CCCC3)n2c1 [Example 35] | – | – | < 100 |
| CC(C)CCN(CCC(C)C)C(=O)c1ccc2nc(-c3c[nH]nc3C(F)(F)F)c(C#CCN3CCCC3)n2c1 [Example 36] | – | – | 100 to 1000 |
